Measurements from paper PMC10877290 (Heliyon, 2024).
“Also recorded” adds a separate entry of the source.

Experiments:
Assay type in all cases: biochemical
[1] = biological target: T1, human pancreatic α-amylase (Homo sapiens, UniProt P04746); test: α-Amylase inhibition assay
T1 sequence (P04746 16-511): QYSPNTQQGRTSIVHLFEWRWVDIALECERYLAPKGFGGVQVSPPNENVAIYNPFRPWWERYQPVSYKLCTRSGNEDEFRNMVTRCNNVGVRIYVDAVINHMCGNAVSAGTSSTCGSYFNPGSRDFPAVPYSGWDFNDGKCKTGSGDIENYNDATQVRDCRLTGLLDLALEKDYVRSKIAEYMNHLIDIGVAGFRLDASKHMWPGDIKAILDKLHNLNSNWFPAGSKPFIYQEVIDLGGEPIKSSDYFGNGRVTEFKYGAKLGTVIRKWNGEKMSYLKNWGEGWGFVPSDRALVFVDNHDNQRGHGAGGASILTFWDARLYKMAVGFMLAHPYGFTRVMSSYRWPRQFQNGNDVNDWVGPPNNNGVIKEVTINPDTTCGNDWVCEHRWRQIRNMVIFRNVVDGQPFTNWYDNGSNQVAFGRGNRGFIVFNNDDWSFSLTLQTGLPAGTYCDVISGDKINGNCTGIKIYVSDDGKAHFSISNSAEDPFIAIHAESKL

[2] = biological target: human lysosomal acid-α-glucosidase (Homo sapiens, UniProt P10253); test: α-Glucosidase inhibition assay
α-amylase = biological target: T2, α-amylase (Homo sapiens, UniProt P04746); test: Enzyme kinetic study, α-amylase; conditions: for Inhibition mode towards α-amylase: Lineweaver-Burk plot
T2 sequence (P04746 16-511): T1 sequence (P04746 16-511)

α-glucosidase = α-glucosidase (Homo sapiens, UniProt P10253); test: Enzyme kinetic study, α-glucosidase; conditions: for Inhibition mode towards α-glucosidase: Lineweaver-Burk plot

COc1cc(C[C@@H]2C[C@H]3C(=O)N(C)[C@@]4(C[C@H](C)CC[C@H]4C(C)C)N3O2)ccc1OCC(=O)N/N=C1\C(=O)Nc2cc(Br)ccc21 [5c, N'-((Z)-6-bromo-2-oxoindolin-3-ylidene)-2-(4-(((1S,2S,2′R,3a′S,5R)-2-isopropyl-5,5′-dimethyl-4′-oxotetrahydro-2′H-spiro[cyclohexane-1,6′-imidazo [1,5-b]isoxazol]-2′-yl)methyl)-2-methoxyphenoxy)acetohydrazide]
IC50 [1]: 68 ± 3.4 µM | IC50 [2]: 152 ± 7.56 µM

COc1cc(C[C@@H]2C[C@H]3C(=O)N(C)[C@@]4(C[C@H](C)CC[C@H]4C(C)C)N3O2)ccc1OCC(=O)N/N=C1\C(=O)Nc2c(Cl)cccc21 [5a, N'-((Z)-7-chloro-2-oxoindolin-3-ylidene)-2-(4-(((1S,2S,2′R,3a′S,5R)-2-isopropyl-5,5′-dimethyl-4′-oxotetrahydro-2′H-spiro[cyclohexane-1,6′-imidazo [1,5-b]isoxazol]-2′-yl)methyl)-2-methoxyphenoxy)acetohydrazide]
IC50 [1]: 194 ± 9.54 µM | Factor by which α-amylase activity is impaired relative to 5d ([1]; 5a versus 5d): 6.3 | IC50 [2]: 209 ± 10.4 µM | Factor by which α-glucosidase activity is impaired relative to 5d ([2]; 5a versus 5d): 3.2

Cc1cccc(C[C@@H]2C[C@H]3C(=O)N(C)[C@@]4(C[C@H](C)CC[C@H]4C(C)C)N3O2)c1OCC(=O)N/N=C1\C(=O)Nc2cc(Br)ccc21 [5e, N'-((Z)-6-bromo-2-oxoindolin-3-ylidene)-2-(2-(((1S,2S,2′R,3a′S,5R)-2-isopropyl-5,5′-dimethyl-4′-oxotetrahydro-2′H-spiro[cyclohexane-1,6′-imidazo [1,5-b]isoxazol]-2′-yl)methyl)-6-methylphenoxy)acetohydrazide]
IC50 [1]: 92.4 ± 4.05 µM | IC50 [2]: 172 ± 8.44 µM

COc1cc(C[C@@H]2C[C@H]3C(=O)N(C)[C@@]4(C[C@H](C)CC[C@H]4C(C)C)N3O2)ccc1OCC(=O)N/N=C1\C(=O)Nc2ccc(F)cc21 [5b, N'-((Z)-5-fluoro-2-oxoindolin-3-ylidene)-2-(4-(((1S,2S,2′R,3a′S,5R)-2-isopropyl-5,5′-dimethyl-4′-oxotetrahydro-2′H-spiro[cyclohexane-1,6′-imidazo [1,5-b]isoxazol]-2′-yl)methyl)-2-methoxyphenoxy)acetohydrazide]
IC50 [1]: 174 ± 8.71 µM

C[C@H]1O[C@H](O[C@H]2[C@H](O)[C@@H](O)[C@@H](O[C@H]3[C@H](O)[C@@H](O)C(O)O[C@@H]3CO)O[C@@H]2CO)[C@H](O)[C@@H](O)[C@@H]1N[C@H]1C=C(CO)[C@@H](O)[C@H](O)[C@H]1O (stereo partly shown) [Acarbose, reference compound]
Inhibition mode towards α-amylase (α-amylase): competitive inhibition; also recorded: competitive inhibitors | Inhibition mode towards α-glucosidase (α-glucosidase): competitive inhibitors; also recorded: compete with the substrate

Cc1cccc(C[C@@H]2C[C@H]3C(=O)N(C)[C@@]4(C[C@H](C)CC[C@H]4C(C)C)N3O2)c1OCC(=O)N/N=C1\C(=O)Nc2ccc(F)cc21 [5f, N'-((Z)-5-fluoro-2-oxoindolin-3-ylidene)-2-(2-(((1S,2S,2′R,3a′S,5R)-2-isopropyl-5,5′-dimethyl-4′-oxotetrahydro-2′H-spiro[cyclohexane-1,6′-imidazo [1,5-b]isoxazol]-2′-yl)methyl)-6-methylphenoxy)acetohydrazide]
IC50 [1]: 55.7 ± 2.78 µM | IC50 [2]: 107 ± 5.31 µM

Cc1cccc(C[C@@H]2C[C@H]3C(=O)N(C)[C@@]4(C[C@H](C)CC[C@H]4C(C)C)N3O2)c1OCC(=O)N/N=C1\C(=O)Nc2c(F)cccc21 [5h, N'-((Z)-7-fluoro-2-oxoindolin-3-ylidene)-2-(2-(((1S,2S,2′R,3a′S,5R)-2-isopropyl-5,5′-dimethyl-4′-oxotetrahydro-2′H-spiro[cyclohexane-1,6′-imidazo [1,5-b]isoxazol]-2′-yl)methyl)-6-methylphenoxy)acetohydrazide]
IC50 [1]: 46.6 ± 2.3 µM | IC50 [2]: 85.2 ± 4.25 µM

Cc1ccc2c(c1)/C(=N/NC(=O)COc1c(C)cccc1C[C@@H]1C[C@H]3C(=O)N(C)[C@@]4(C[C@H](C)CC[C@H]4C(C)C)N3O1)C(=O)N2 [5g, 2-(2-(((1S,2S,2′R,3a′S,5R)-2-isopropyl-5,5′-dimethyl-4′-oxotetrahydro-2′H-spiro[cyclohexane-1,6′-imidazo [1,5-b]isoxazol]-2′-yl)methyl)-6-methylphenoxy)-N'-((Z)-5-methyl-2-oxoindolin-3-ylidene)acetohydrazide]
IC50 [1]: 135 ± 6.73 µM

Cc1cccc(C[C@@H]2C[C@H]3C(=O)N(C)[C@@]4(C[C@H](C)CC[C@H]4C(C)C)N3O2)c1OCC(=O)N/N=C1\C(=O)Nc2c(Cl)cccc21 [5d, N'-((Z)-7-chloro-2-oxoindolin-3-ylidene)-2-(2-(((1S,2S,2′R,3a′S,5R)-2-isopropyl-5,5′-dimethyl-4′-oxotetrahydro-2′H-spiro[cyclohexane-1,6′-imidazo [1,5-b]isoxazol]-2′-yl)methyl)-6-methylphenoxy)acetohydrazide]
IC50 [1]: 30.4 ± 1.52 µM | IC50 [2]: 65.1 ± 3.11 µM | Ki (α-amylase): 27.5 µM | Inhibition mode towards α-amylase (α-amylase): competitive inhibition; also recorded: competitive inhibitors | Ki (α-glucosidase): 56.1 µM | Inhibition mode towards α-glucosidase (α-glucosidase): competitive inhibitors; also recorded: compete with the substrate
